{
  "source": "patent US20220023358A1",
  "about": "“COMBINATION THERAPIES OF MICROORGANISMS AND IMMUNE MODULATORS FOR USE IN TREATING CANCER” (Synlogic Operating Company, Inc., priority 2018, published 2022)",
  "molecules": {"B1": {"name": "PEGPH20: PEGylated form of rHuPH20, a hyaluronidase (protein, UniProt P38567 36-490, looked up)", "Hyaluronidase PH-20": "LNFRAPPVIPNVPFLWAWNAPSEFCLGKFDEPLDMSLFSFIGSPRINATGQGVTIFYVDRLGYYPYIDSITGVTVNGGIPQKISLQDHLDKAKKDITFYMPVDNLGMAVIDWEEWRPTWARNWKPKDVYKNRSIELVQQQNVQLSLTEATEKAKQEFEKAGKDFLVETIKLGKLLRPNHLWGYYLFPDCYNHHYKKPGYNGSCFNVEIKRNDDLSWLWNESTALYPSIYLNTQQSPVAATLYVRNRVREAIRVSKIPDAKSPLPVFAYTRIVFTDQVLKFLSQDELVYTFGETVALGASGIVIWGTLSIMRSMKSCLLLDNYMETILNPYIINVTLAAKMCSQVLCQEQGVCIRKNWNSSDYLHLNPDNFAIQLEKGGKFTVRGKPTLEDLEQFSEKFYCSCYSTLSCKEKADVKDTDAVDVCIADGVCIDAFLKPPMETEEPQIFYNASPSTLS", "modifications": "PEG", "notes": "PEGylated form of rHuPH20, a hyaluronidase"}},
  "key": {"[1]": {"tested_on": "WT, TLR4−/− and STING−/− BMDCs", "assay": "Cytokine mRNA in WT, TLR4−/− and STING−/− BMDCs", "type": "cell-based, murine", "conditions": "4 hours", "experimental": "(§1) In indicated groups cells were pre-treated with for lh with Cytochalasin D (10 μM). Macrophages or BMDCs incubated in media alone served as a negative control. Cells were analyzed for the upregulation of Ifnbl and 116 mRNA (FIGS. 7D-7G). WT, TLR4^−/− and STING-^−/− BMDCs were treated with Control EcN (MOI: 25), pre-induced SYN1891 (MOI: 25), LPS (100 ng/mL), or smSTING agonist (5 μg/mL) for 4 hours. Cells were analyzed for the upregulation of Ifnb1, Il6 and Il12a mRNA (FIGS. 7H-7J). Data are representative of two or more independent experiments with mean and standard deviation shown. **P<0.005; ***P<0.0005; ****P<0.00001; two-tailed unpaired Student's t-test comparing the indicated groups.\nLPS is an integral component of the outer membrane of Gram-negative bacteria and as such LPS recognition by TLR4 plays an important role in the induction of immune responses by these microbes."}, "[2]": {"tested_on": "RAW 264.7 macrophages or WT BMDCs", "assay": "Cytokine mRNA in RAW 264.7 macrophages or WT BMDCs, with or without Cytochalasin D", "type": "cell-based, murine", "experimental": "as §1\nTo evaluate the mechanism of action of SYNB1891 in the induction of type I IFNs, bacterial phagocytosis was blocked using cytochalasin D. Cytochalasin D inhibits actin polymerization and prevents phagocytosis, yet it has minimal effect on endocytosis/pinocytosis of soluble small molecules. […] Therefore, phagocytosis of SYNB1891 is required for intracellular CDA release and STING activation in target cells, providing a natural mechanism for preferential activation of APCs in the tumor."}, "[3]": {"tested_on": "NK cells", "conditions": "first-in-human clinical trial; cited from earlier work"}, "[4]": {"tested_on": "Hyaluronan or Hyaluronic acid (HA)", "conditions": "mouse PDA tumors; cited from earlier work"}},
  "data": [
    {"molecule": "Nc1ncnc2c1ncn2[C@@H]1O[C@@H]2COP(O)(=S)O[C@@H]3C(O)[C@@H](COP(O)(=S)O[C@H]2[C@H]1O)O[C@H]3n1cnc2c(N)ncnc21", "note": "(stereo partly drawn) [smSTING agonist, 2′3′-c-di-AM(PS)2 (Rp,Rp)]", "values": [
      {"measurement": "IFNβ1 expression in STING−/− BMDCs", "setting": "[1]; STING−/− BMDCs", "result": "completely abrogated"},
      {"measurement": "IFNβ1 expression in TLR4−/− BMDCs", "setting": "[1]; TLR4−/− BMDCs", "result": "preserved"},
      {"measurement": "Cytokines expressed", "setting": "[2]; 4 hours, 5 μg/mL", "result": "led only to IFNβ1 expression"},
      {"measurement": "IFNβ1 induction, effect of Cytochalasin D", "setting": "[2]; Cytochalasin D pre-treatment", "result": "did not affect"}
    ]},
    {"molecule": "recombinant human IL-15: recombinant human IL-15 cytokine", "values": [
      {"measurement": "Expansion of NK cells", "setting": "[3]", "result": 10, "unit": "fold"}
    ]},
    {"molecule": "B1", "values": [
      {"measurement": "Interstitial fluid pressure after treatment", "setting": "[4]", "result": "20-30 mmHg"}
    ]}
  ]
}
